According to paper PMC13198257, “An aerosolized dual-action autotaxin inhibitor-PPARγ agonist for the treatment of pulmonary fibrosis” (Cell Reports Medicine, 2026):

System: lung gene expression
Experiment: RNA sequencing of lung tissue (BLM/EL244 vs BLM)
Format: in vivo, mouse
Protocol: RNA quality was assessed using an Agilent TapeStation 4150 with the High Sensitivity […] ScreenTape (Agilent), according to the manufacturer’s protocols. For library preparation, the QuantSeq 3’mRNA-Seq Library Prep Kit (Lexogen) was used according to manufacturer’s instructions. Briefly, 500 ng of RNA from each sample was used for first-strand synthesis, followed by RNA template removal, and second-strand synthesis initiated by random primers. In-line barcodes were introduced at this step, and this was followed by magnetic bead-based purification. The resulting libraries were amplified for 15 cycles and re-purified, with quantity and quality assessed on a Qubit 4 Fluorometer with the Invitrogen Qubit dsDNA HS Assay and an Agilent Tapestation 4150 with the High Sensitivity D1000 assay kit, respectively. The quantified libraries were pooled equimolarly; 50ng of total library mix was used for Adapter Conversion PCR Amplification using the Universal Library Conversion Kit (App-A), Version: V1.0 (MGI Tech Co., Ltd.), according to the manufacturer’s instructions.
The quantity and quality of the purified adapter conversion PCR (AC-PCR) product were evaluated on a Qubit 4 Fluorometer with the Invitrogen Qubit dsDNA HS Assay and on an Agilent Tapestation 4150 with the High Sensitivity D1000 assay kit, respectively. This was followed by DNA denaturation, Single-Strand Circularisation, Enzymatic Digestion, Enzymatic Digestion Product Cleanup and Quality Control steps on 1 pmol of AC-PCR product, according to the Universal Library Conversion Kit (App-A) User Manual (Version: A3).
Finally, 60 fmol of ssCirDNA were used for DNB preparation and sequencing on a DNBSEQ-G400 platform at the BSRC Alexander Fleming Genomics Facility, using a G400 App-A FCS SE100 High-throughput Sequencing Set (MGI Tech Co., Ltd.), according to the manufacturer’s instructions.
Alignment of the FASTQ files was performed against the mouse genome build mm10 using a custom Bash script.[143] Read counting on the 3′ UTRs and differential expression analysis were conducted using the metaseqR2 bioconductor package.[144] Genes corresponding to the following biotypes were excluded: polymorphic_pseudogene, processed_transcript, pseudogene, IG_V_pseudogene, misc_RNA, IG_C_gene, IG_J_gene, IG_D_gene, IG_LV_gene, TR_V_gene, TR_V_pseudogene, TEC, and processed_pseudogene. Gene counts were normalized with DESEQ[145] through metaseqR2. Genes with more than 10 counts in at least 50% of the samples were kept for further processing. For differential expression analysis, the PANDORA algorithm[146] was used to estimate a meta p-value integrating the results from the DESEQ, DESEQ2,[147] edgeR,[148] limma,[149] NBPSeq,[150] and NOISeq[151] algorithms. All additional parameters were set to default values.
Pathway enrichment analysis was performed for the Gene Ontology Biological process (BP) and Molecular Function (MF) terms through GeneCodis 4.[152] The volcano plots, scatterplots, Venn diagrams, and dot plots were generated using the ggplot2 Bioconductor package.

O=C1NC(=O)C(Cc2ccc(OCCC3CCN(C(=O)OCc4cc(Cl)cc(Cl)c4)CC3)cc2)S1 (stereo not drawn) [EL244, 3,5-dichlorobenzyl 4-(2-(4-((2,4-dioxothiazolidin-5-yl)methyl)phenoxy)ethyl)piperidine-1-carboxylate]
Rbm24 nFC (BLM/EL244 vs BLM, lung tissue): 2.29
Rdh12 log2 nFC (BLM/EL244 vs BLM, lung tissue): 1.74
Rdh12 nFC (BLM/EL244 vs BLM, lung tissue): 3.34
Retnlg log2 nFC (BLM/EL244 vs BLM, lung tissue): 1.46
Retnlg nFC (BLM/EL244 vs BLM, lung tissue): 2.74
Ryr2 log2 nFC (BLM/EL244 vs BLM, lung tissue): 2.14
Ryr2 nFC (BLM/EL244 vs BLM, lung tissue): 4.39
S1pr5 log2 nFC (BLM/EL244 vs BLM, lung tissue): 1.64
S1pr5 nFC (BLM/EL244 vs BLM, lung tissue): 3.12
S100a8 log2 nFC (BLM/EL244 vs BLM, lung tissue): 1.52
S100a8 nFC (BLM/EL244 vs BLM, lung tissue): 2.86
S100a9 log2 nFC (BLM/EL244 vs BLM, lung tissue): 2.11
S100a9 nFC (BLM/EL244 vs BLM, lung tissue): 4.32
Scel log2 nFC (BLM/EL244 vs BLM, lung tissue): 1.31
Scel nFC (BLM/EL244 vs BLM, lung tissue): 2.47
Shank3 log2 nFC (BLM/EL244 vs BLM, lung tissue): 1.61
Shank3 nFC (BLM/EL244 vs BLM, lung tissue): 3.05
Slc38a4 log2 nFC (BLM/EL244 vs BLM, lung tissue): 1.12
Slc38a4 nFC (BLM/EL244 vs BLM, lung tissue): 2.17
Sln log2 nFC (BLM/EL244 vs BLM, lung tissue): 2.01
Sln nFC (BLM/EL244 vs BLM, lung tissue): 4.02
Smad6 log2 nFC (BLM/EL244 vs BLM, lung tissue): 1.18
Smad6 nFC (BLM/EL244 vs BLM, lung tissue): 2.26
Smpx log2 nFC (BLM/EL244 vs BLM, lung tissue): 2.34
Smpx nFC (BLM/EL244 vs BLM, lung tissue): 5.08
Smyd1 log2 nFC (BLM/EL244 vs BLM, lung tissue): 1.73
Smyd1 nFC (BLM/EL244 vs BLM, lung tissue): 3.32
Snhg11 log2 nFC (BLM/EL244 vs BLM, lung tissue): 1.40
Snhg11 nFC (BLM/EL244 vs BLM, lung tissue): 2.64
Snx21 log2 nFC (BLM/EL244 vs BLM, lung tissue): 1.15
Snx21 nFC (BLM/EL244 vs BLM, lung tissue): 2.21
Sox18 log2 nFC (BLM/EL244 vs BLM, lung tissue): 1.91
Sox18 nFC (BLM/EL244 vs BLM, lung tissue): 3.76
Spink5 log2 nFC (BLM/EL244 vs BLM, lung tissue): 1.36
Spink5 nFC (BLM/EL244 vs BLM, lung tissue): 2.57
Tbata log2 nFC (BLM/EL244 vs BLM, lung tissue): 1.72
Tbata nFC (BLM/EL244 vs BLM, lung tissue): 3.30
Tcap log2 nFC (BLM/EL244 vs BLM, lung tissue): 1.73
Tcap nFC (BLM/EL244 vs BLM, lung tissue): 3.32
Tex11 log2 nFC (BLM/EL244 vs BLM, lung tissue): 1.83
Tex11 nFC (BLM/EL244 vs BLM, lung tissue): 3.55
Tmem182 log2 nFC (BLM/EL244 vs BLM, lung tissue): 2.26
Tmem182 nFC (BLM/EL244 vs BLM, lung tissue): 4.78
Tmem132d log2 nFC (BLM/EL244 vs BLM, lung tissue): 2.38
Tmem132d nFC (BLM/EL244 vs BLM, lung tissue): 5.19
Tnnc1 log2 nFC (BLM/EL244 vs BLM, lung tissue): 2.18
Tnnc1 nFC (BLM/EL244 vs BLM, lung tissue): 4.53
Tnni3 log2 nFC (BLM/EL244 vs BLM, lung tissue): 2.31
Tnni3 nFC (BLM/EL244 vs BLM, lung tissue): 4.95
Tnnt2 log2 nFC (BLM/EL244 vs BLM, lung tissue): 1.77
Tnnt2 nFC (BLM/EL244 vs BLM, lung tissue): 3.42
Ttn log2 nFC (BLM/EL244 vs BLM, lung tissue): 2.53
Ttn nFC (BLM/EL244 vs BLM, lung tissue): 5.78
Upk3b log2 nFC (BLM/EL244 vs BLM, lung tissue): 1.53
Upk3b nFC (BLM/EL244 vs BLM, lung tissue): 2.88
Xndc1 log2 nFC (BLM/EL244 vs BLM, lung tissue): 1.14
Xndc1 nFC (BLM/EL244 vs BLM, lung tissue): 2.21
Zbtb16 log2 nFC (BLM/EL244 vs BLM, lung tissue): 1.33
Zbtb16 nFC (BLM/EL244 vs BLM, lung tissue): 2.51
Zmynd10 log2 nFC (BLM/EL244 vs BLM, lung tissue): 1.28
Zmynd10 nFC (BLM/EL244 vs BLM, lung tissue): 2.44
1810010H24Rik log2 nFC BLM/EL244 vs BLM (DEG 1810010H24Rik, nFC: normalised fold change): 0.90
1810020O05Rik log2 nFC BLM/EL244 vs BLM (DEG 1810020O05Rik, nFC: normalised fold change): 1.58
2410004I01Rik log2 nFC BLM/EL244 vs BLM (DEG 2410004I01Rik, nFC: normalised fold change): 1.80
9330159F19Rik log2 nFC BLM/EL244 vs BLM (DEG 9330159F19Rik, nFC: normalised fold change): 1.78
9530026P05Rik log2 nFC BLM/EL244 vs BLM (DEG 9530026P05Rik, nFC: normalised fold change): 3.17
A3galt2 log2 nFC BLM/EL244 vs BLM (DEG A3galt2, nFC: normalised fold change): 2.32
log2 nFC BLM/EL244 vs BLM (DEG AA467197): -1.39
Abca8a log2 nFC BLM/EL244 vs BLM (DEG Abca8a, nFC: normalised fold change): 0.75
Abi3bp log2 nFC BLM/EL244 vs BLM (DEG Abi3bp, nFC: normalised fold change): 1.00
Acaa1b log2 nFC BLM/EL244 vs BLM (DEG Acaa1b, nFC: normalised fold change): 1.43
Acbd4 log2 nFC BLM/EL244 vs BLM (DEG Acbd4, nFC: normalised fold change): 0.86
Acot1 log2 nFC BLM/EL244 vs BLM (DEG Acot1, nFC: normalised fold change): 1.08
Acoxl log2 nFC BLM/EL244 vs BLM (DEG Acoxl, nFC: normalised fold change): 1.23
Actc1 log2 nFC BLM/EL244 vs BLM (DEG Actc1, nFC: normalised fold change): 1.28
Adam3 log2 nFC BLM/EL244 vs BLM (DEG Adam3, nFC: normalised fold change): 1.67
log2 nFC BLM/EL244 vs BLM (DEG Adam12): -1.57
log2 nFC BLM/EL244 vs BLM (DEG Adamts12): -1.47
Adh7 log2 nFC BLM/EL244 vs BLM (DEG Adh7, nFC: normalised fold change): 1.02
Alas2 log2 nFC BLM/EL244 vs BLM (DEG Alas2, nFC: normalised fold change): 1.58
Aldh1a1 log2 nFC BLM/EL244 vs BLM (DEG Aldh1a1, nFC: normalised fold change): 0.78
log2 nFC BLM/EL244 vs BLM (DEG Ankrd37): -1.50
Ankrd44 log2 nFC BLM/EL244 vs BLM (DEG Ankrd44, nFC: normalised fold change): 0.84
Ankrd63 log2 nFC BLM/EL244 vs BLM (DEG Ankrd63, nFC: normalised fold change): 1.34
Aox3 log2 nFC BLM/EL244 vs BLM (DEG Aox3, nFC: normalised fold change): 1.07
Aqp9 log2 nFC BLM/EL244 vs BLM (DEG Aqp9, nFC: normalised fold change): 1.66
Ar log2 nFC BLM/EL244 vs BLM (DEG Ar, nFC: normalised fold change): 1.04
Arhgap28 log2 nFC BLM/EL244 vs BLM (DEG Arhgap28, nFC: normalised fold change): 1.14
Arhgef38 log2 nFC BLM/EL244 vs BLM (DEG Arhgef38, nFC: normalised fold change): 0.87
Arl4a log2 nFC BLM/EL244 vs BLM (DEG Arl4a, nFC: normalised fold change): 0.70
log2 nFC BLM/EL244 vs BLM (DEG Armcx4): -1.32
Arrdc2 log2 nFC BLM/EL244 vs BLM (DEG Arrdc2, nFC: normalised fold change): 1.24
Asgr1 log2 nFC BLM/EL244 vs BLM (DEG Asgr1, nFC: normalised fold change): 1.80
Atp2a3 log2 nFC BLM/EL244 vs BLM (DEG Atp2a3, nFC: normalised fold change): 0.83
Atp6v1c2 log2 nFC BLM/EL244 vs BLM (DEG Atp6v1c2, nFC: normalised fold change): 1.03
Baiap3 log2 nFC BLM/EL244 vs BLM (DEG Baiap3, nFC: normalised fold change): 1.24
Bbof1 log2 nFC BLM/EL244 vs BLM (DEG Bbof1, nFC: normalised fold change): 1.11
log2 nFC BLM/EL244 vs BLM (DEG Bcl2a1d): -1.29
Bex2 log2 nFC BLM/EL244 vs BLM (DEG Bex2, nFC: normalised fold change): 1.46
Bmp6 log2 nFC BLM/EL244 vs BLM (DEG Bmp6, nFC: normalised fold change): 1.07
Bpifa1 log2 nFC BLM/EL244 vs BLM (DEG Bpifa1, nFC: normalised fold change): 1.12
log2 nFC BLM/EL244 vs BLM (DEG C1qa): -1.44
log2 nFC BLM/EL244 vs BLM (DEG C1qb): -1.51
log2 nFC BLM/EL244 vs BLM (DEG C1qc): -1.56
log2 nFC BLM/EL244 vs BLM (DEG C1qtnf6): -1.38
log2 nFC BLM/EL244 vs BLM (DEG C3ar1): -1.58
C130080G10Rik log2 nFC BLM/EL244 vs BLM (DEG C130080G10Rik, nFC: normalised fold change): 3.58
Car3 log2 nFC BLM/EL244 vs BLM (DEG Car3, nFC: normalised fold change): 1.57
Casq2 log2 nFC BLM/EL244 vs BLM (DEG Casq2, nFC: normalised fold change): 2.36
Cbr2 log2 nFC BLM/EL244 vs BLM (DEG Cbr2, nFC: normalised fold change): 0.91
Ccdc153 log2 nFC BLM/EL244 vs BLM (DEG Ccdc153, nFC: normalised fold change): 0.79
Ccdc171 log2 nFC BLM/EL244 vs BLM (DEG Ccdc171, nFC: normalised fold change): 1.04
log2 nFC BLM/EL244 vs BLM (DEG Ccl2): -1.43
log2 nFC BLM/EL244 vs BLM (DEG Ccl8): -1.54
